Pest or weed control data for twelve molecules are collected here from US9549556B2, “Macrocyclic picolinamides as fungicides” (DOW AGROSCIENCES LLC, priority 2013, dated 2017).

One assay deals with Puccinia triticina. The assay is described as follows: Wheat brown rust (PUCCRT) disease control on wheat seedlings. It counts as in vivo. The conditions noted are these: read-out: PUCCRT disease control rating (% Control); for pest or weed control at 121.5 g/ha: 121.5 g/H, low volume (track spray) application; for pest or weed control at 100 ppm: high volume application.
Another assay concerns Septoria tritici. Briefly: Leaf blotch of wheat (SEPTTR) disease control on wheat seedlings. The format is in vivo, Mycosphaerella graminicola (anamorph Septoria tritici). The conditions noted are these: Zymoseptoria tritici, read-out: SEPTTR disease control rating (% Control); for pest or weed control at 121.5 g/ha: 121.5 g/H, low volume (track spray) application; for pest or weed control at 100 ppm: high volume application. The method, then:
Evaluation of Fungicidal Activity: Leaf Blotch of Wheat (Mycosphaerella graminicola; Anamorph: Septoria tritici; Bayer Code […]) Technical grades of materials were dissolved in acetone, which were then mixed with nine volumes of water containing 110 ppm Triton X-100. The fungicide solutions were applied onto wheat seedlings using an automated booth sprayer to run-off. All sprayed plants were allowed to air dry prior to further handling. All fungicides were evaluated using the aforementioned method for their activity vs. all target diseases. Wheat leaf blotch and brown rust activity were also evaluated using track spray applications, in which case the fungicides were formulated as EC formulations, containing 0.1% Trycol 5941 in the spray solutions. Wheat plants (variety Yuma) were grown from seed in a greenhouse in 50% mineral soil/50% soil-less Metro mix until the first leaf was fully emerged, with 7-10 seedlings per pot. These plants were inoculated with an aqueous spore suspension of Septoria tritici either prior to or after fungicide treatments. After inoculation the plants were kept in 100% relative humidity (one day in a dark dew chamber followed by two to three days in a lighted dew chamber at 20° C.) to permit spores to germinate and infect the leaf. The plants were then transferred to a greenhouse set at 20° C. for disease to develop. When disease symptoms were fully expressed on the 1st leaves of untreated plants, infection levels were assessed on a scale of 0 to 100 percent disease severity. Percent disease control was calculated using the ratio of disease severity on treated plants relative to untreated plants.

Read-outs that look alike come from different tables or passages of the source.

Consider `COc1ccnc(C(=O)N[C@H]2COC[C@H](OCc3ccccc3)[C@@H](Cc3ccc(F)cc3)[C@H](C)OC2=O)c1OCOC(C)=O` [Compound 30], for which the pest or weed control at 121.5 g/ha in the assay with Puccinia triticina (24 h, 1DP (1 Day Protectant)) was above 70%; with Puccinia triticina (72 h, 3DC (3 Day Curative)), above 70%; with Septoria tritici (24 h, 1DP (1 Day Protectant)), above 70%; in the assay with Septoria tritici (72 h, 3DC (3 Day Curative)), above 70%.
In the case of `COc1ccnc(C(=O)N[C@H]2COC[C@H](OC(=O)C3CC3)[C@@H](CCC(C)C)[C@H](C)OC2=O)c1O` [Compound 36], the pest or weed control at 100 ppm in the assay on Puccinia triticina (24 h, 1DP (1 Day Protectant)) is below 70%; with Puccinia triticina (72 h, 3DC (3 Day Curative)), below 70%; in the assay on Septoria tritici (24 h, 1DP (1 Day Protectant)), below 70%; in the assay with Septoria tritici (72 h, 3DC (3 Day Curative)), above 70%.
Consider `CCCC[C@H]1[C@H](C)OC(=O)[C@@H](NC(=O)c2nccc(OC)c2O)COC[C@@H]1OCc1ccccc1` [Compound 37], for which the pest or weed control at 100 ppm in the assay with Puccinia triticina (24 h, 1DP (1 Day Protectant)) is above 70%; in the assay on Puccinia triticina (72 h, 3DC (3 Day Curative)), above 70%; with Septoria tritici (24 h, 1DP (1 Day Protectant)) it was above 70%; in the assay on Septoria tritici (72 h, 3DC (3 Day Curative)) it was above 70%.
Consider `COc1ccnc(C(=O)N[C@H]2COC[C@H](OCc3ccccc3)[C@@H](Cc3ccc(F)cc3)[C@H](C)OC2=O)c1O` [Compound 38], for which the pest or weed control at 100 ppm in the assay on Puccinia triticina (24 h, 1DP (1 Day Protectant)) was above 70%; in the assay on Puccinia triticina (72 h, 3DC (3 Day Curative)), above 70%; in the assay with Septoria tritici (24 h, 1DP (1 Day Protectant)), above 70%; in the assay on Septoria tritici (72 h, 3DC (3 Day Curative)) it was above 70%.
With `CCCC[C@H]1[C@H](C)OC(=O)[C@@H](NC(=O)c2nccc(OC)c2OCOC(C)=O)COC[C@@H]1OCc1ccccc1` [Compound 40], the pest or weed control at 121.5 g/ha with Puccinia triticina (24 h, 1DP (1 Day Protectant)) is above 70%; with Puccinia triticina (72 h, 3DC (3 Day Curative)), above 70%; in the assay with Septoria tritici (24 h, 1DP (1 Day Protectant)), above 70%; in the assay with Septoria tritici (72 h, 3DC (3 Day Curative)), above 70%.
With `CCCC[C@H]1[C@H](C)OC(=O)[C@@H](NC(=O)c2nccc(OC)c2OCOC(C)=O)COC[C@@H]1OC(=O)C(C)C` [Compound 43], the pest or weed control at 121.5 g/ha with Puccinia triticina (24 h, 1DP (1 Day Protectant)) is above 70%; in the assay on Puccinia triticina (72 h, 3DC (3 Day Curative)), above 70%; with Septoria tritici (24 h, 1DP (1 Day Protectant)) it was below 70%; with Septoria tritici (72 h, 3DC (3 Day Curative)), above 70%.
Consider `CCCC[C@H]1[C@H](C)OC(=O)[C@@H](NC(=O)c2nccc(OC)c2OCOC(C)=O)COC[C@@H]1Oc1ccccc1` [Compound 44], for which the pest or weed control at 121.5 g/ha with Puccinia triticina (24 h, 1DP (1 Day Protectant)) was above 70%; in the assay on Puccinia triticina (72 h, 3DC (3 Day Curative)), above 70%; in the assay on Septoria tritici (24 h, 1DP (1 Day Protectant)), above 70%; in the assay with Septoria tritici (72 h, 3DC (3 Day Curative)) it was above 70%.
As for `CCCC[C@H]1[C@H](C)OC(=O)[C@@H](NC(=O)c2nccc(OC)c2O)COC[C@@H]1Oc1ccccc1` [Compound 45], the pest or weed control at 100 ppm with Puccinia triticina (24 h, 1DP (1 Day Protectant)) is above 70%; with Puccinia triticina (72 h, 3DC (3 Day Curative)) it was below 70%; in the assay on Septoria tritici (24 h, 1DP (1 Day Protectant)), above 70%; with Septoria tritici (72 h, 3DC (3 Day Curative)), below 70%.
On to `COc1ccnc(C(=O)N[C@H]2COC[C@H](Oc3ccccc3)[C@@H](CCC(C)C)[C@H](C)OC2=O)c1OC(C)=O` [Compound 47], for which the pest or weed control at 121.5 g/ha is above 70% in the assay with Puccinia triticina (24 h, 1DP (1 Day Protectant)); below 70% in the assay on Puccinia triticina (72 h, 3DC (3 Day Curative)); above 70% with Septoria tritici (24 h, 1DP (1 Day Protectant)); above 70% with Septoria tritici (72 h, 3DC (3 Day Curative)).
In the case of `CCCC[C@H]1[C@H](C)OC(=O)[C@@H](NC(=O)c2nccc(OC)c2OCOC(C)=O)COC[C@@H]1OCCCC(F)(F)F` [Compound 48], the pest or weed control at 121.5 g/ha in the assay on Puccinia triticina (24 h, 1DP (1 Day Protectant)) is above 70%; with Puccinia triticina (72 h, 3DC (3 Day Curative)) it was above 70%; in the assay with Septoria tritici (24 h, 1DP (1 Day Protectant)) it was above 70%; with Septoria tritici (72 h, 3DC (3 Day Curative)) it was above 70%.
In the case of `CCCC[C@H]1[C@H](C)OC(=O)[C@@H](NC(=O)c2nccc(OC)c2O)COC[C@@H]1OC(=O)C(C)C` [Compound 58], the pest or weed control at 100 ppm in the assay with Puccinia triticina (24 h, 1DP (1 Day Protectant)) is above 70%; with Puccinia triticina (72 h, 3DC (3 Day Curative)), below 70%; with Septoria tritici (24 h, 1DP (1 Day Protectant)), below 70%; in the assay with Septoria tritici (72 h, 3DC (3 Day Curative)), above 70%.
For the molecule `COc1ccnc(C(=O)N[C@H]2COC[C@H](OC(=O)C3CC3)[C@@H](Cc3ccc(F)cc3)[C@H](C)OC2=O)c1OCOC(C)=O` [Compound 59], the pest or weed control at 121.5 g/ha was above 70% with Puccinia triticina (24 h, 1DP (1 Day Protectant)); above 70% in the assay on Puccinia triticina (72 h, 3DC (3 Day Curative)); above 70% in the assay with Septoria tritici (24 h, 1DP (1 Day Protectant)); above 70% in the assay with Septoria tritici (72 h, 3DC (3 Day Curative)).
